Results taken from patent US11242337B2, “Compounds useful for treating gastrointestinal tract disorders” (Ardelyx, Inc., priority 2017, dated 2022).
Read-outs that look alike come from different tables or passages of the source.

What was measured:
NHE3 [1] = target: T1, NHE3 (Homo sapiens, UniProt P48764); test: persistent inhibition of NHE3 in the cell-based assay of example 181 (4-chloro vs 4-cyano pairs); details: for IC50: cell-based assay of example 181, after washout, read-out: pIC50 (persistent) (converted); for Percent Inhibition: cell-based assay of example 181, persistent
T1 construct: expressed in transfected cells
T1 sequence (P48764 26-834): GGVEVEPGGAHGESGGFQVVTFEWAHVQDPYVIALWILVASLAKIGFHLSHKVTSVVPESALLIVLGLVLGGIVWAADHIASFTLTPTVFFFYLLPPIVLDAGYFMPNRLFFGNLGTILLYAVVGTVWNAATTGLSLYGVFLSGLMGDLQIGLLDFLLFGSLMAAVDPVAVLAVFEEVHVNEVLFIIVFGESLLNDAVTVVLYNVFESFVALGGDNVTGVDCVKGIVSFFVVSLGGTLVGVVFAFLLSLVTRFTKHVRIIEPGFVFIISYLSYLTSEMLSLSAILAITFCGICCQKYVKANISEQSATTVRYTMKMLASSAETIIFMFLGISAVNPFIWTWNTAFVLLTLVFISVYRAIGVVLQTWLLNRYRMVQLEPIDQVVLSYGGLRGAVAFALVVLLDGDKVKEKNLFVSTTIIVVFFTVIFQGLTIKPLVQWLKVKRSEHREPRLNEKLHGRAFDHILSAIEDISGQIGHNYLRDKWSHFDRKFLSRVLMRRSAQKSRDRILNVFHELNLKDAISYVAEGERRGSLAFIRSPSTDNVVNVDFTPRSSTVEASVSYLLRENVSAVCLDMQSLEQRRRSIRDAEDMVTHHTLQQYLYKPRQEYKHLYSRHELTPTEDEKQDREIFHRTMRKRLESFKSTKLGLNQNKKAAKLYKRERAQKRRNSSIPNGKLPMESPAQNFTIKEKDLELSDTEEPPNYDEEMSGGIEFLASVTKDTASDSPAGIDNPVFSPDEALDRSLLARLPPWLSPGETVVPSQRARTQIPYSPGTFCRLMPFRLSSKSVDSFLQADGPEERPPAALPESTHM
T1 sequence (Q99653 2-195 partner limits assumed): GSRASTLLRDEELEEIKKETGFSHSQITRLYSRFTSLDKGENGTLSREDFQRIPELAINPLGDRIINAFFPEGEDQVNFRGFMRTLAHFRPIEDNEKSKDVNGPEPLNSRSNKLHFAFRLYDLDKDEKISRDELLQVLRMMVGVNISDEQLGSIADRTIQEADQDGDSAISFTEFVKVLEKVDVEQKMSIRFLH
Method: The following pairs of compounds differ only in the 4-position substituent (either chloro (X—Cl) or cyano (X—CN)):
The ability of compounds to inhibit human and rat NHE-3-mediated Na^+ dependent H^+ antiport after application and washout was measured using a modification of the pH sensitive dye method described above. PS120 fibroblasts stably expressing human NHE3 and NHERF2 were obtained from Mark Donowitz (Baltimore, Md.). Opossum kidney (OK) cells were obtained from the ATCC and propagated per their instructions. The rat NHE-3 gene was introduced into OK cells via electroporation, and cells were seeded into 96 well plates and grown overnight. Medium was aspirated from the wells, cells were washed once with NaCl-HEPES buffer (100 mM NaCl, 50 mM HEPES, 10 mM glucose, 5 mM KCl, 2 mM CaCl2, 1 mM MgCl2, pH 7.4), then overlayed with NaCl-HEPES buffer containing 0-30 μM test compound. After a 60 min incubation at room temperature, the test drug containing buffer was aspirated from the cells. Following aspiration, cells were washed once with NaCl-HEPES buffer without drug, then incubated for 30 min at 37° C. with NH4Cl-HEPES buffer (20 mM NH4Cl, 80 mM NaCl, 50 mM HEPES, 5 mM KCl, 2 mM CaCl2, 1 mM MgCl2, pH 7.4) containing 5 μM BCECF-AM. Cells were washed once with Ammonium free, Na^+-free HEPES (100 mM choline, 50 mM HEPES, 10 mM glucose, 5 mM KCl, 2 mM CaCl2, 1 mM MgCl2, pH 7.4) and incubated in the same buffer for 10 minutes at room temperature to lower intracellular pH. NHE-3-mediated recovery of neutral intracellular pH was initiated (10 min after compound washout) by addition of Na-HEPES buffer. […] Changes in intracellular pH were monitored using a FLIPR Tetra® (Molecular Devices, Sunnyvale, Calif.) by excitation at λex 439 to 505 nm, and measuring BCECF fluorescence at λem 538 nm. The initial rate of the fluorescence ratio change was used as a measure of NHE-mediated Na^+/H^+ activity, and reported as the change in fluorescence ratio per minute.

NHE3 [2] = target: T1, NHE3; test: Cell-based assay of NHE-3 activity (persistent inhibition), human; details: human Persistence, 60 min incubation then washout
Method in brief: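 Persistent inhibition: compound (0-30 μM, 60 min, RT, NaCl-HEPES pH 7.4) removed before assay. Human NHE3/NHERF2 PS120 cells were then BCECF-loaded during NH4Cl pulse (30 min, 37 °C), acidified in Na+-free buffer, and Na+ added 10 min after washout; antiport measured as initial fluorescence-ratio change per minute.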

NHE3 [3] = target: T1, NHE3; test: Cell-based assay of NHE-3 activity (pre-incubation inhibition), human; details: human Preincubation
Method in brief: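 Activity read as initial rate of BCECF fluorescence ratio change per minute (ex 439/505, em 538 nm) following NH4Cl prepulse acid loading. Compound (0–30 μM) present during 10 min Na+-free acidification at room temperature; cells were PS120 fibroblasts stably co-expressing human NHE3 and NHERF2.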

[4] = tested on: absorption of sodium from the intestinal lumen; test: Inhibition of intestinal sodium absorption in mice; type: in vivo; details: CD-1 mice, 15 mg/kg oral gavage twice daily; for response vs control in vivo at 15 mg/kg: Mus musculus, 72 h, day 3, normalized to dietary sodium intake
Method: Urinary and fecal sodium excretions were measured to assess the ability of selected example compounds to inhibit the absorption of sodium from the intestinal lumen. In addition, an assessment of the absence or presence of diarrhea in response to compound treatment was made. Approximately eight-week old, male, CD-1 mice were purchased from Envigo (Livermore, Calif.), were housed 6 per cage and acclimated for at least 48 hours before study initiation. Animals were fed Harlan Teklad Global TD.160470 rodent chow (Madison, Wis.), standard laboratory rodent chow Harlan Teklad Global 2018 with the addition of 0.4% inorganic phosphorous. […] To initiate the study, mice were weighed and then individually placed in metabolic cages. Following a 3-day acclimation period to the metabolic cage, a 24-hr baseline collection of urine and feces was performed. […] Each day, measurements of body weight. 24-hour food intake, water intake, urine volume and wet fecal weight were recorded, along with any observation of diarrhea. Fecal samples were dried using a lyophilizer for at least 3 days, following which dry weight was recorded and fecal fluid content was calculated based on the difference between the wet and dry stool weights. Fecal fluid content on day 3 of compound treatment was calculated as a change from the vehicle group mean. For urine samples, the volumes were determined gravimetrically. Feces and urine were analyzed for sodium content by microwave plasma-atomic emission spectroscopy or ion chromatography, respectively. Urine samples were analyzed on an ion chromatography system (Thermo Fisher ICS-3000 or ICS-5000+) coupled with conductivity detectors. Chromatographic separation of cations was performed using an IonPac CS12A (Thermo Fisher) 2×250 mm analytical column with an isocratic elution using […] methanesulfonic acid. Concentrations were interpolated from a a standard curve (prepared in 10 mM HCl) for sodium ion based on retention time and peak area. Fecal sample analysis by Microwave Plasma Atomic Emission Spectrometry (MP-AES). Dry fecal samples were ground into a fine powder on a homogenizer and the ground samples (400-600 mg aliquots weighed) were digested with nitric acid by microwave method (Mars 6). These digested samples were diluted with 1% Nitric acid and analyzed on Agilent 4100 MP-AES. Concentrations were calculated relative to a standard curve (prepared in 1% Nitric acid) for sodium based on the signal intensity. Sodium was detected at a wavelength of 588.995 nm. Twenty-four-hour urinary sodium excretion (ma/24-hours) was calculated by multiplying urinary sodium concentration by 24-hour urine volume. Twenty-four-hour fecal sodium excretion (mg/24-hours) was calculated by multiplying fecal sodium concentration by 24-hour dry fecal weight. The urinary and fecal sodium excretion on day 3 of compound treatment were normalized to dietary sodium intake and expressed as a percentage of the vehicle mean.

Row | Compound | IC50 (NHE3 [1]) [nM] | Percent Inhibition (NHE3 [1]) [%] | % inhibition (NHE3 [2]) | % inhibition (NHE3 [3]) | further results
1 | C[C@@H]1CN([C@H]2Cc3c(C#N)cc(Cl)cc3[C@@H]2Oc2ccc(S(=O)(=O)N[C@@H]3CCN(CCOCCNC(=O)NCCCCNC(=O)NCCOCCN4CC[C@@H](NS(=O)(=O)c5ccc(O[C@H]6c7cc(Cl)cc(C#N)c7C[C@@H]6N6CCN[C@H](C)C6)cc5)C4)C3)cc2)CCN1 [A-CN, 3-(2-{2-[(3R)-3-(4-{[(1S,2S)-6-chloro-4-cyano-2-[(3R)-3-methylpiperazin-1-yl]-2,3-dihydro-1H-inden-1-yl]oxy}benzenesulfonamido)pyrrolidin-1-yl]ethoxy}ethyl)-1-(4-{[(2-{2-[(3R)-3-(4-{[(1S,2S)-6-chloro-4-cyano-2-[(3R)-3-methylpiperazin-1-yl]-2,3-dihydro-1H-inden-1-yl]oxy}benzenesulfonamido)pyrrolidin-1-yl]ethoxy}ethyl)carbamoyl]amino}butyl)urea] | 0.631 | 101 |  |  | 
2 | C[C@@H]1CN([C@H]2Cc3c(Cl)cc(Cl)cc3[C@@H]2Oc2ccc(S(=O)(=O)N[C@H]3CCN(CCOCCNC(=O)NCCCCNC(=O)NCCOCCN4CC[C@H](NS(=O)(=O)c5ccc(O[C@H]6c7cc(Cl)cc(Cl)c7C[C@@H]6N6CCN[C@H](C)C6)cc5)C4)C3)cc2)CCN1 [A-Cl, 3-(2-{2-[(3S)-3-(4-{[(1S,2S)-4,6-dichloro-2-[(3R)-3-methylpiperazin-1-yl]-2,3-dihydro-1H-inden-1-yl]oxy}benzenesulfonamido)pyrrolidin-1-yl]ethoxy}ethyl)-1-(4-{[(2-{2-[(3S)-3-(4-{[(1S,2S)-4,6-dichloro-2-[(3R)-3-methylpiperazin-1-yl]-2,3-dihydro-1H-inden-1-yl]oxy}benzenesulfonamido)pyrrolidin-1-yl]ethoxy}ethyl)carbamoyl]amino}butyl)urea] | 2.51 | 101 |  |  | 

Now from value to molecule, other results behind:

Row | IC50 (NHE3 [1]) [nM] | Percent Inhibition (NHE3 [1]) [%] | % inhibition (NHE3 [2]) | % inhibition (NHE3 [3]) | Compound | further results
3 | 0.126 | 110 |  |  | C[C@@H]1CN([C@H]2Cc3c(C#N)cc(Cl)cc3[C@@H]2Oc2ccc(S(=O)(=O)N[C@H]3CCN(C(=O)CNC(=O)CNC(=O)NCCCCNC(=O)NCC(=O)NCC(=O)N4CC[C@H](NS(=O)(=O)c5ccc(O[C@H]6c7cc(Cl)cc(C#N)c7C[C@@H]6N6CCN[C@H](C)C6)cc5)C4)C3)cc2)CCN1 [B-CN, N-{2-[(3S)-3-(4-{[(1S,2S)-6-chloro-4-cyano-2-[(3R)-3-methylpiperazin-1-yl]-2,3-dihydro-1H-inden-1-yl]oxy}benzenesulfonamido)pyrrolidin-1-yl]-2-oxoethyl}-2-({[4-({[({2-[(3S)-3-(4-{[(1S,2S)-6-chloro-4-cyano-2-[(3R)-3-methylpiperazin-1-yl]-2,3-dihydro-1H-inden-1-yl]oxy}benzenesulfonamido)pyrrolidin-1-yl]-2-oxoethyl}carbamoyl)methyl]carbamoyl}amino)butyl]carbamoyl}amino)acetamide] | 
4 |  |  | C (>70%) | C (>70%) | CN(C)[C@@H]1CCCN([C@H]2Cc3c(Cl)cc(Cl)cc3[C@@H]2Oc2ccc(S(=O)(=O)NCCOCCOCCNC(=O)NCCCCNC(=O)NCCOCCOCCNS(=O)(=O)c3ccc(O[C@H]4c5cc(Cl)cc(Cl)c5C[C@@H]4N4CCC[C@@H](N(C)C)C4)c(F)c3)cc2F)C1 [Example 27, 3-[2-(2-[2-[(4-[[(1S,2S)-4,6-Dichloro-2-[(3R)-3-(dimethylamino)piperidin-1-yl]-2,3-dihydro-1H-inden-1-yl]oxy]-3-fluorobenzene)sulfonamido]ethoxy]ethoxy)ethyl]-1-[4-([[2-(2-[2-[(4-[[(1S,2S)-4,6-dichloro-2-[(3R)-3-(dimethylamino)piperidin-1-yl]-2,3-dihydro-1H-inden-1-yl]oxy]-3-fluorobenzene)sulfonamido]ethoxy]ethoxy)ethyl]carbamoyl]amino)butyl]urea; bis(trifluoroacetic acid)] | Fecal fluid content (Δ from vehicle) ([4]; day 3, change from vehicle group mean): C (>10); response vs control in vivo at 15 mg/kg ([4]; read-out: Fecal Na Excretion (% of vehicle)): > 200%; response vs control in vivo at 15 mg/kg ([4]; read-out: Urinary Na Excretion (% of vehicle)): 50 to 70%
5 |  |  | C (>70%) | C (>70%) | N#Cc1cc(Cl)cc2c1C[C@H](N1CCNCC1)[C@H]2Oc1ccc(S(=O)(=O)NC2CCN(C(=O)CCCNC(=O)NCCCC(=O)N3CCC(NS(=O)(=O)c4ccc(O[C@H]5c6cc(Cl)cc(C#N)c6C[C@@H]5N5CCNCC5)cc4)CC3)CC2)cc1 [Example 154, 4-([(1S,2S)-6-Chloro-4-cyano-2-(piperazin-1-yl)-2,3-dihydro-1H-inden-1-yl]oxy)-N-[1-(4-[3-(4-[4-([4-([(1S,2S)-6-chloro-4-cyano-2-(piperazin-1-yl)-2,3-dihydro-1H-inden-1-yl]oxy)phenyl]sulfonamido)piperidin-1-yl]-4-oxobutyl)ureido]butanoyl)piperidin-4-yl]benzenesulfonamide] | pIC50 (NHE3 [2]): C (NHE3 pIC50 > 7); pIC50 (NHE3 [3]; 0-30 μM test compound): C (NHE3 pIC50 > 7)
